Test results: patent US8834870B2, “Treatment of leukemias and chronic myeloproliferative diseases with antibodies to EphA3” (Kalobios Pharmaceuticals, Inc., priority 2009, dated 2014)

Key:
[1] = molecular target: EphA3 antigen (UniProt P29320); experiment: ELISA on EphA3 antigen
[2] = tested on: bone marrow cells from AML patients; experiment: Apoptosis induction (Annexin V flow cytometry), AML primary cells; assay type: cell-based, human; conditions: camptothecin 10 μM positive control, 24 hours
Protocol: An engineered human activating antibody that binds to EphA3 was evaluated for the ability to induce apoptosis in vitro in primary cells isolated from patients or individuals suffering from myeloproliferative disorders. Cells were seeded at 2.5×10^5 cells/well in 96-well “U”-bottom plates in 0.1 ml culture medium (RPMI 1640 with 10% fetal bovine serum). Anti-EphA3 antibody or human IgG1 isotype control antibody was added to final concentrations between 10 μg/ml and 1 ng/ml and the plates were incubated at 37° C. and 5% carbon dioxide in a tissue-culture incubator for 24 hours. As a positive control for apoptosis induction, separate cell samples were incubated with camptothecin (10 μM; Calbiochem). […]
In these samples, in each case in which CD123^+CD34^+CD38^− leukemic stem cells (LSC) could be identified, 100% of these LSC were also positive for EphA3 expression. In the majority of samples, there is good correlation between the percent of cells killed either by ADCC or apoptosis mediated by an engineered human anti-EphA3 antibody and the proportion of cells detected as positive for EphA3 by flow cytometry, indicating specificity of the antibody for EphA3-expressing cells.

[3] = tested on: peripheral blood cells from polycythemia vera (PV) patient; experiment: Apoptosis induction (Annexin V flow cytometry), PV primary cells; assay type: cell-based, human; conditions: sample PB-2, PV; camptothecin 10 μM positive control; 24 hours
Protocol: (§1) An engineered human activating antibody that binds to EphA3 was evaluated for the ability to induce apoptosis in vitro in primary cells isolated from patients or individuals suffering from myeloproliferative disorders. Cells were seeded at 2.5×10^5 cells/well in 96-well “U”-bottom plates in 0.1 ml culture medium (RPMI 1640 with 10% fetal bovine serum). Anti-EphA3 antibody or human IgG1 isotype control antibody was added to final concentrations between 10 μg/ml and 1 ng/ml and the plates were incubated at 37° C. and 5% carbon dioxide in a tissue-culture incubator for 24 hours. As a positive control for apoptosis induction, separate cell samples were incubated with camptothecin (10 μM; Calbiochem). At the end of the incubation, cells were harvested and washed by centrifugation at 1000 rpm for 5 min followed by incubation in 0.1 ml of 1× Annexin V binding buffer (BD Pharmingen, Cat #556547, component no. 51-66121E) containing 5 μl FITC-conjugated Annexin V (BD Pharmingen, component no. 51-65874×) and 5 μl Propidium Iodide (component no. 51-66211E) for 15 minutes at room temperature in the dark. Four hundred μl of 1× binding buffer was added to each tube and annexin V-staining apoptotic cells were identified by flow cytometry. FIG. 4 provides data showing apoptosis activity of a human engineered antibody.

[4] = tested on: peripheral blood cells from essential thrombocythemia (ET) patient; experiment: Apoptosis induction (Annexin V flow cytometry), ET primary cells; assay type: cell-based, human; conditions: sample PB-1, ET; camptothecin 10 μM positive control; 24 hours
Protocol: as §1

Chain of UniProt P29320 (P29320 21-541 limits assumed): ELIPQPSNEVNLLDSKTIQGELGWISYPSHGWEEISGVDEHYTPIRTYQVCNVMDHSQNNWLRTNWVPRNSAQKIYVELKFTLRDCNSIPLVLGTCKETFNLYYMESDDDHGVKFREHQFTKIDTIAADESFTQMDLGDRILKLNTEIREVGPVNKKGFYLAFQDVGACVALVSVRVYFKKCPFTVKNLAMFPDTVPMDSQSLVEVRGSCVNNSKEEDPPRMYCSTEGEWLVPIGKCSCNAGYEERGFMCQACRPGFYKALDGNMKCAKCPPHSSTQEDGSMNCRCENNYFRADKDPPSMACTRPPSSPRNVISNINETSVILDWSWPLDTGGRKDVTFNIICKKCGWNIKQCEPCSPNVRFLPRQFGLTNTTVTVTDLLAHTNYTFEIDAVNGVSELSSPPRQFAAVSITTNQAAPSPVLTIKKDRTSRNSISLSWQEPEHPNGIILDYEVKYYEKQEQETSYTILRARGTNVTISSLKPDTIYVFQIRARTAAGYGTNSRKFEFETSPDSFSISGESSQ

monoclonal antibody IIIA4
AFFINITY [1]: 2.5 nM

CC[C@@]1(O)C(=O)OCc2c1cc1n(c2=O)Cc2cc3ccccc3nc2-1 [Camptothecin, camptothecin]
Camptothecin-mediated apoptosis (% cell death) ([2]; sample BM, 06, AML): 59.8%
Camptothecin-mediated apoptosis (% cell death) ([2]; sample BM, 07, AML): 47.8%
Camptothecin-mediated apoptosis (% cell death) [3]: 73.2%
Camptothecin-mediated apoptosis (% cell death) [4]: 78%
